Earlier results on one molecule are cited in US10293048B2, “Pharmaceutical compositions comprising boronic acid compounds” (DR. REDDY'S LABORATORIES LIMITED, priority 2012, dated 2019).

Structures are written as SMILES. Read-outs that look alike come from different tables or passages of the source.

The conditions of the data set: 1.3 mM in 2% ethyl alcohol/98% normal saline pH 2.8, 25° C., 14 days.

For `CC(C)C[C@H](NC(=O)[C@H](Cc1ccccc1)NC(=O)c1cnccn1)B(O)O` [bortezomib, [(1R)-3-methyl-1-[[(2S)-1-oxo-3-phenyl-2-[(pyrazinylcarbonyl)amino]propyl]amino]butyl]boronic acid], the degradation by setting is: (containing 0.1% of ascorbic acid) 21.8%; (no ascorbic acid) 5.9%.
